Patent US8889874B2, “Imidazolone-chalcone derivatives as potential anticancer agent and process for the preparation thereof” (Council of Scientific and Industrial Research, priority 2010, dated 2014)
Like-named read-outs stand apart in the source and are kept apart here.

Columns and labels:
Format in all cases: cell-based, human
[1] = tested on: HOP-62 (non-small cell lung); assay: NCI anticancer screen, SRB assay, 48 h; conditions: Homo sapiens
How it was run: (§1)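 Sulforhodamine B protein assay read cell growth after 48 h of continuous compound exposure. Dose-response curves per cell line used at least five 10-fold-diluted concentrations, within a panel of fifty-three human lines from nine tumour types.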

[2] = tested on: ACHN (renal); assay: NCI anticancer screen, SRB assay, 48 h; conditions: Homo sapiens
How it was run: as §1

[3] = tested on: RXF 393 (renal); assay: NCI anticancer screen, SRB assay, 48 h; conditions: Homo sapiens
How it was run: as §1

[4] = tested on: COLO 205 (colon); assay: NCI anticancer screen, SRB assay, 48 h; conditions: Homo sapiens, COLO 205
How it was run: as §1

[5] = tested on: SN12C (renal); assay: NCI anticancer screen, SRB assay, 48 h; conditions: Homo sapiens, SN12C
How it was run: as §1

[6] = tested on: SF-539 (CNS); assay: NCI anticancer screen, SRB assay, 48 h; conditions: Homo sapiens
How it was run: as §1

[7] = tested on: OVCAR-5 (ovarian); assay: NCI anticancer screen, SRB assay, 48 h; conditions: Homo sapiens
How it was run: as §1

[8] = tested on: HOP-92 (non-small cell lung); assay: NCI anticancer screen, SRB assay, 48 h; conditions: Homo sapiens
How it was run: as §1

[9] = tested on: SK-MEL-2 (melanoma); assay: NCI anticancer screen, SRB assay, 48 h; conditions: Homo sapiens
How it was run: as §1

[10] = tested on: U251 (CNS); assay: NCI anticancer screen, SRB assay, 48 h; conditions: Homo sapiens
How it was run: as §1

[11] = tested on: NCI/ADR-RES (ovarian); assay: NCI anticancer screen, SRB assay, 48 h; conditions: Homo sapiens, NCI/ADR-RES
How it was run: as §1

[12] = tested on: SNB-19 (CNS); assay: NCI anticancer screen, SRB assay, 48 h; conditions: Homo sapiens
How it was run: as §1

[13] = tested on: HCC-2998 (colon); assay: NCI anticancer screen, SRB assay, 48 h; conditions: Homo sapiens
How it was run: as §1

[14] = tested on: UO-31 (renal); assay: NCI anticancer screen, SRB assay, 48 h; conditions: Homo sapiens
How it was run: as §1

[15] = tested on: SK-MEL-28 (melanoma); assay: NCI anticancer screen, SRB assay, 48 h; conditions: Homo sapiens
How it was run: as §1

[16] = tested on: NCI-H460 (non-small cell lung); assay: NCI anticancer screen, SRB assay, 48 h; conditions: Homo sapiens
How it was run: as §1

[17] = tested on: M14 (melanoma); assay: NCI anticancer screen, SRB assay, 48 h; conditions: Homo sapiens
How it was run: as §1

[18] = tested on: Colon cancer cell lines; assay: NCI anticancer screen, SRB assay, panel summary; conditions: for GI50: Homo sapiens
How it was run: as §1

[19] = tested on: Breast cancer cell lines; assay: NCI anticancer screen, SRB assay, panel summary; conditions: Homo sapiens
How it was run: as §1

[20] = tested on: Ovarian cancer cell lines; assay: NCI anticancer screen, SRB assay, panel summary; conditions: Homo sapiens
How it was run: as §1

[21] = tested on: Melanoma cancer cell lines; assay: NCI anticancer screen, SRB assay, panel summary; conditions: for GI50: Homo sapiens
How it was run: as §1

[22] = tested on: Non-small cell lung cancer cell lines; assay: NCI anticancer screen, SRB assay, panel summary; conditions: Homo sapiens
How it was run: as §1

[23] = tested on: CNS cancer cell lines; assay: NCI anticancer screen, SRB assay, panel summary; conditions: for GI50: Homo sapiens
How it was run: as §1

[24] = tested on: Leukemia cancer cell lines; assay: NCI anticancer screen, SRB assay, panel summary; conditions: Homo sapiens
How it was run: as §1

[25] = tested on: Renal cancer cell lines; assay: NCI anticancer screen, SRB assay, panel summary; conditions: Homo sapiens, Renal panel
How it was run: as §1

[26] = tested on: Prostate cancer cell lines; assay: NCI anticancer screen, SRB assay, panel summary
How it was run: as §1

[27] = 48 h exposure, SRB, read-out: GI50
[28] = read-out: pGI50 (-log of molar concentration causing 50% inhibition of net cell growth) (converted)

SMILES: O=C(/C=C/c1cccc(O)c1)c1cccc(-n2cc(-c3ccccc3)[nH]c2=O)c1 [4a, 1-3-[(E)-3-(3-hydroxyphenyl)-2-propenoyl]phenyl-4-phenyl-2,3-dihydro-1H-2-imidazolone]
- GI50 [1, 27]: 6.93 µM
- GI50 [1, 28]: 6.92 µM
- GI50 [2, 27]: 2.76 µM
- GI50 [2, 28]: 2.75 µM
- GI50 ([3]; RXF 393, 48 h exposure, SRB, read-out: GI50): 1.89 µM
- GI50 ([3]; RXF-393, read-out: pGI50 (-log of molar concentration causing 50% inhibition of net cell growth) (converted)): 1.91 µM
- GI50 ([4]; COLO205, read-out: pGI50 (-log of molar concentration causing 50% inhibition of net cell growth) (converted)): 2 µM
- GI50 [4, 27]: 2.01 µM
- GI50 ([5]; SN 12C, read-out: pGI50 (-log of molar concentration causing 50% inhibition of net cell growth) (converted)): 3.16 µM
- GI50 [5, 27]: 3.14 µM
- GI50 [6, 27]: 1.98 µM
- GI50 [6, 28]: 2 µM
- GI50 [7, 27]: 5.44 µM
- GI50 [7, 28]: 5.5 µM
- GI50 [8, 27]: 5.04 µM
- GI50 [8, 28]: 5.01 µM
- GI50 [9, 27]: 8.26 µM
- GI50 [9, 28]: 8.32 µM
- GI50 ([10]; U-251, 48 h exposure, SRB, read-out: GI50): 1.61 µM
- GI50 ([10]; U-251, read-out: pGI50 (-log of molar concentration causing 50% inhibition of net cell growth) (converted)): 1.62 µM
- GI50 ([11]; NCl/ADR-RES, 48 h exposure, SRB, read-out: GI50): 3.73 µM
- GI50 [11, 28]: 3.72 µM
- GI50 [12, 27]: 10.9 µM
- GI50 [12, 28]: 11 µM
- GI50 [13, 27]: 4.09 µM
- GI50 [13, 28]: 4.07 µM
- GI50 [14, 27]: 2.16 µM
- GI50 [14, 28]: 2.14 µM
- GI50 [15, 27]: 5.63 µM
- GI50 [15, 28]: 5.62 µM
- GI50 [16, 27]: 2.49 µM
- GI50 [16, 28]: 2.51 µM
- GI50 [17, 27]: 4.53 µM
- GI50 [17, 28]: 4.57 µM
- mean graph midpoint (MG_MID) of Log10 LC50 ([18]; Colon panel, log of concentration leading to 50% net cell death): 4.55
- GI50 ([18]; Colon panel, log of concentration in mol/L causing 50% inhibition of net cell growth, read-out: mean graph midpoint (MG_MID) of Log10 GI50 (converted)): 2.75 µM
- GI50 ([18]; seven colon cancer cell lines, exposure at least 48 hrs, read-out: GI50, range over the panel): 1.83 to 4.09 µM
- GI50 ([19]; Breast panel, log of concentration in mol/L causing 50% inhibition of net cell growth, read-out: mean graph midpoint (MG_MID) of Log10 GI50 (converted)): 4.79 µM
- LC50 ([19]; Breast panel, log of concentration leading to 50% net cell death, read-out: mean graph midpoint (MG_MID) of Log10 LC50 (converted)): 72.4 µM
- GI50 ([19]; five breast cancer cell lines, exposure at least 48 hrs, read-out: GI50, range over the panel): 2.47 to 9.32 µM
- GI50 ([20]; Ovarian panel, log of concentration in mol/L causing 50% inhibition of net cell growth, read-out: mean graph midpoint (MG_MID) of Log10 GI50 (converted)): 4.68 µM
- LC50 ([20]; Ovarian panel, log of concentration leading to 50% net cell death, read-out: mean graph midpoint (MG_MID) of Log10 LC50 (converted)): 46.8 µM
- GI50 ([20]; six ovarian cancer cell lines, exposure at least 48 hrs, read-out: GI50, range over the panel): 2.8 to 11.1 µM
- GI50 ([21]; Melanoma panel, log of concentration in mol/L causing 50% inhibition of net cell growth, read-out: mean graph midpoint (MG_MID) of Log10 GI50 (converted)): 4.47 µM
- GI50 ([21]; nine melanoma cancer cell lines, exposure at least 48 hrs, read-out: GI50, range over the panel): 1.85 to 8.26 µM
- mean graph midpoint (MG_MID) of Log10 LC50 ([21]; Melanoma panel, log of concentration leading to 50% net cell death): 4.35
- GI50 ([22]; Non-small cell lung panel, log of concentration in mol/L causing 50% inhibition of net cell growth, read-out: mean graph midpoint (MG_MID) of Log10 GI50 (converted)): 6.92 µM
- GI50 ([22]; nine non-small cell lung cancer cell lines, exposure at least 48 hrs, read-out: GI50, range over the panel): 2.49 to 24.8 µM
- mean graph midpoint (MG_MID) of Log10 LC50 ([23]; CNS panel, log of concentration leading to 50% net cell death): 4.60
- GI50 ([23]; CNS panel, log of concentration in mol/L causing 50% inhibition of net cell growth, read-out: mean graph midpoint (MG_MID) of Log10 GI50 (converted)): 5.75 µM
- GI50 ([23]; six CNS cancer cell lines, exposure at least 48 hrs, read-out: GI50, range over the panel): 1.61 to 18.2 µM
- GI50 ([24]; Leukemia panel, log of concentration in mol/L causing 50% inhibition of net cell growth, read-out: mean graph midpoint (MG_MID) of Log10 GI50 (converted)): 2.29 µM
- LC50 ([24]; Leukemia panel, log of concentration leading to 50% net cell death, read-out: mean graph midpoint (MG_MID) of Log10 LC50 (converted)): ≥ 100 µM
- GI50 ([24]; two leukemia cancer cell lines (RPMI-8226 and K-562), exposure at least 48 hrs, read-out: GI50, range over the panel): 2.12 to 3.35 µM
- GI50 ([25]; log of concentration in mol/L causing 50% inhibition of net cell growth, read-out: mean graph midpoint (MG_MID) of Log10 GI50 (converted)): 4.17 µM
- LC50 ([25]; log of concentration leading to 50% net cell death, read-out: mean graph midpoint (MG_MID) of Log10 LC50 (converted)): 33.9 µM
- GI50 ([26]; Homo sapiens, log of concentration in mol/L causing 50% inhibition of net cell growth, read-out: mean graph midpoint (MG_MID) of Log10 GI50 (converted)): 2.82 µM
- LC50 ([26]; Homo sapiens, log of concentration leading to 50% net cell death, read-out: mean graph midpoint (MG_MID) of Log10 LC50 (converted)): 49 µM
- mean graph midpoint (MG_MID) of Log10 TGI ([26]; log of concentration resulting in total inhibition of net cell growth): 4.90
